# Assays:
# [1] = test system: zQ175 knock-in mice (WT, heterozygous, homozygous); assay: In vivo PET imaging in zQ175 knock-in mouse model of Huntington's disease; conditions: for Average % SUV: i.v., 63-minute PET scan, Mean ± SD
# Protocol: In Vivo Imaging with [^11C]-Compound 3 of Method 14 (5-[(5-[^11C-]-Methoxypyridin-2-yl)methoxy]-2-(pyridin-3-yl)-1,3-benzoxazole)) in a Knock-In Model of Huntington's Disease
# ^11C-labeled Compound 3 of Method 14 was evaluated for its ability to penetrate the central nervous system of mice following systemic administration, and its binding to the cerebellum, striatum, hippocampus, and cortex was quantitated. Three groups of animals were compared: wild-type, and mice that were heterozygous or homozygous for the zQ175 knock-in allele. (Menalled L. B. et al. Comprehensive behavioral and molecular characterization of a new knock-in mouse model of Huntington's disease: zQ175. PLoS One 2012, 7, e49838).
# Forty-eight nine months old animals (16 WT, 16 heterozygous and 16 homozygous zQ175) were obtained from The Jackson Laboratory, USA. The animals were housed at the animal department of Karolinska University Hospital in a temperature (±21° C.) and humidity (±40%) controlled environment on a 12 h light/dark cycle (lights on 7:00 AM) with access to food and water ad libitum. Animals were allowed at least one week to habituate to the animal department before the start of the imaging sessions. All experiments were conducted during the light phase of the cycle.
# Animals were anesthetized with inhalation of isoflurane (4-5% isoflurane in 100% oxygen). After induction of anesthesia, the isoflurane concentration was lowered to 1.5-2% (50/50 air/oxygen) and the animals were positioned in the scanner in a designated mouse bed. A cannula was inserted in the tail vein through which the radioligand was administered. A 63-minute dynamic PET scan was initiated immediately upon intravenous injection of the radioligand. Upon completion of the imaging sessions, each animal was returned to its cage.
# Image and Statistical Analysis
# The acquired list mode data, was reconstructed into 25 timeframes (63 min scan=4×10 s, 4×20 s, 4×60 s, 7×180 s, 6×360 s). The image reconstruction was made with a fully 3-dimensional maximum-likelihood expectation maximization algorithm (MLEM) with 20 iterations, without scatter and attenuation correction. The reconstructed dynamic PET images were co-registered to an inbuilt mouse MRI template available in PMOD, which also incorporates volumes of interest (VOI's) sets (PMOD Technologies Ltd., Zurich, Switzerland). With the help of these VOI sets, decay corrected time activity curves (TAC) were generated. The regional brain uptake values were expressed as percent standard uptake value (% SUV), which normalizes for injected radioactivity and body weight. In addition, the area under the curve (AUC) was calculated. The selected regions of interest (ROI) were: cortex, hippocampus, striatum and cerebellum.
# [2] = test system: recombinant tau and amyloid β1-42 (Aβ1-42) aggregates; conditions: affinity for tau aggregates versus Aβ1-42 aggregates; cited from earlier work
"Average % SUV ([1]; cerebellum, WT mice (n = 7)) [% SUV]","Average % SUV ([1]; cerebellum, het zQ175 mice (n = 7)) [% SUV]","Average % SUV ([1]; cerebellum, hom zQ175 mice (n = 6)) [% SUV]","Average % SUV ([1]; cortex, WT mice (n = 7)) [% SUV]","Average % SUV ([1]; cortex, het zQ175 mice (n = 7)) [% SUV]","Average % SUV ([1]; cortex, hom zQ175 mice (n = 6)) [% SUV]","Average % SUV ([1]; hippocampus, WT mice (n = 7)) [% SUV]","Average % SUV ([1]; hippocampus, het zQ175 mice (n = 7)) [% SUV]","Average % SUV ([1]; hippocampus, hom zQ175 mice (n = 6)) [% SUV]","Average % SUV ([1]; striatum, WT mice (n = 7)) [% SUV]","Average % SUV ([1]; striatum, het zQ175 mice (n = 7)) [% SUV]","Average % SUV ([1]; striatum, hom zQ175 mice (n = 6)) [% SUV]",SMILES,"binding of the radioligand relative to wild type ([1]; all four brain regions, mice homozygous for the zQ175 allele)",ratio of Kd values [2]
74.2 ± 3.0,78.4 ± 5.9,88.2 ± 5.0,69.1 ± 3.1,75.1 ± 4.3,93.9 ± 8.0,72.0 ± 3.6,80.3 ± 5.5,104.6 ± 7.9,68.8 ± 2.7,79.7 ± 5.8,104.4 ± 9.1,"[11CH3]Oc1ccc(COc2ccc3oc(-c4cccnc4)nc3c2)nc1 [^11C-labeled Compound 3 of Method 14, 5-[(5-[^11C-]-Methoxypyridin-2-yl)methoxy]-2-(pyridin-3-yl)-1,3-benzoxazole]",Increased binding,–
–,–,–,–,–,–,–,–,–,–,–,–,"CN(C)c1ccc(/C=C/c2nc3ccc(I)cc3[nH]2)cc1 [SBIM-3, 4-[(E)-2-(6-iodo-1H-benzimidazol-2-yl)ethenyl]-N,N-dimethylaniline]",–,2.73
